# Patent US20260083924A1, “CAPSULE INHALER FOR THE ADMINISTRATION OF A PHOSPHODIESTERASE-4 INHIBITOR” (CHIESI FARMACEUTICI S.P.A., priority 2022, published 2026)
# Key:
# [1] = In vitro dissolution test (RespiCell) on fine fraction collected by Fast Screening Impactor; format: physicochemical; conditions: FIG. 3; 800 μg dose, HR RS01 or UHR RS01 vs Nexthaler; PBS with 0.5% SDS, 37 °C
# Method: In vitro dissolution tests were carried out to compare the performance of the Reference Products and the drug product of the invention at 800 μg, using RespiCell™ (EU registration No 006649570-0001), a vertical diffusion cell apparatus that comprises a 170 cm^3 reservoir filled with the dissolution media and a side arm of 10 cm length. The apparatus is composed of an upper part, the donor chamber, and a lower part, the receptor chamber, linked by a clamp and separated by a glass fiber filter, used as diffusion membrane, and sit horizontally in contact with the dissolution medium. The receptor chamber contains a magnetic stirrer inside it. Type A/E glass fiber filter of 76 mm diameter (PALL Corporation, Port Washington; NY, USA) were employed as diffusion membrane. The dissolution medium employed for the analysis was phosphate-buffer saline (PBS) with 0.5% of Sodium dodecyl sulfate (SDS). RespiCell™ was connected to a heating thermostat (Lauda eco silver E4, DE) set at 37±0.5° C. […] The amount of drug in the samples was assessed by HPLC. The data were expressed as percentage of the compound of formula (I) dissolved and 100% of the dissolution corresponded to the drug amount dissolved at the end of experiment. […] The difference factor (f1) is calculated as follows: […]
# [2] = inhalation; multi-dose Nexthaler vs single-dose Aerolizer; cited from earlier work
smiles,measurement,setting,value
"CS(=O)(=O)Nc1ccc(C(=O)O[C@@H](Cc2c(Cl)c[n+]([O-])cc2Cl)c2ccc(OC(F)F)c(OCC3CC3)c2)cc1OCC1CC1 [compound of formula (I), 3,5-dichloro-4-[(2S)-2-[3-(cyclopropylmethoxy)-4-(difluoromethoxy)phenyl]-2-{[3-(cyclopropylmethoxy)-4-(methanesulfonamido)benzoyl]oxy}ethyl]pyridinel-oxide]","amount of the compound of formula (I) dissolved, higher in comparison to the Reference Product",[1],7-20%
same,"weighted AUC systemic bioavailability, higher via Nexthaler than via Aerolizer",[2],about 30%
